Test results: patent US20260227303A1, “SYSTEMS AND METHODS FOR MEASURING PARTICLE SIZE IN TISSUE AND TURBID MEDIA” (The General Hospital Corporation, priority 2023, published 2026)

Tested on: platelets in whole blood
Test: Platelet function testing: laser speckle particle sizing of platelet aggregate size in lysed whole blood
Format: cell-based, human
Procedure: To prepare the 4660 μM CPD stock solution, a Plavix tablet (e.g., 75 mg, Bristol-Meyer Squibb) was crushed to powder, mixed with 50 ml of deionized water, sonicated for 10 minutes, and incubated at 50° C. in a water bath for 3 minutes. Following institutional review board (IRB) approval, de-identified blood specimens from two patients undergoing routine coagulation testing were collected in 0.105 M sodium citrate vacutainer system (e.g., Becton & Dickinson, Co., Franklin Lakes, NJ, USA) from the MGH special coagulation laboratory. The specimen was divided into four samples of 66 μl. The first sample (control) was mixed with 20 μl of saline. The second sample was mixed 5 μl of saline and 10 μl of LB. The third sample was mixed with 5 μl of saline and 10 μl of LB, and 5 μl ADP stock solution (e.g., 5 μM, Helena Laboratories, Beaumont, TX, USA). Finally, the 4th and last sample was mixed 10 μl of LB 5 μl of ADP and 5 μl of diluted CPD (5 μM). The samples were loaded in imaging chambers and speckle image acquisition started promptly. For each of the specimens, both the parallel and perpendicularly polarized speckle frames were captured for 1 second, at 750 fps.
The third sample entailed 66 μl of whole blood plus 5 μl of PBS, 10 μl of lysis buffer, and 5 μl Adenosine diphosphate (ADP), a platelet agonist to initiate platelet aggregation. […]

Structure (SMILES) | estimated particle size (average radius) (66 μl whole blood + 5 μl PBS/saline + 10 μl RBC lysis buffer + 5 μl ADP, lysed blood without ADP 360 nm, increase likely reflects platelet aggregation) [μm] | estimated particle size (average radius) (66 μl whole blood + 10 μl RBC lysis buffer + 5 μl ADP + 5 μl CPD, reverts to the lysed-blood level (360 nm), potentially indicating disaggregation of platelets) [nm]
Nc1ncnc2c1ncn2[C@@H]1O[C@H](COP(=O)(O)OP(=O)(O)O)[C@@H](O)[C@H]1O [ADP, Adenosine diphosphate] | 1.8 | –
COC(=O)[C@H](c1ccccc1Cl)N1CCc2sccc2C1 [CPD, clopidogrel bisulphate] | – | 367
